Experimental findings from patent US10233180B2, “Substituted nitrogen-containing heterocyclic derivatives, pharmaceutical compositions comprising the same and applications of antitumor thereof” (ZHEJIANG UNIVERSITY, priority 2014, dated 2019) are described below.

Molecules are shown by their SMILES.

For one assay, the target named is T1, Akt1 (Homo sapiens, UniProt P31749).
T1 construct: purchased 32-021
The assay can be described thus: AKT1/PKBα KinEASE FP Fluorescein Green Assay (fluorescence polarization kinase kit). The class given is biochemical. Conditions: 1 h reaction, read-out: Inhibitory activities against Akt1 (IC50). The protocol:
Second, method for determining the inhibitory activities of substituted nitrogen-containing heterocyclic derivatives in the present invention against Akt1 enzyme:
The inhibitory activities of compounds against AKT1/PKBα are determined by using AKT1/PKBα KinEASE™ FP Fluorescein Green Assay (Green fluorescence detection system of Kinase).
Principle adopted by the fluorescence polarization detection of protein kinase B is a competitive reaction: the phosphorylated tracers labeled with fluorescence will compete with unlabeled phosphorylated products produced by reacting with protein kinase B to combine anti-serine antibodies. […] However, in the reaction mixture containing phosphorylated products, fewer tracers will combine with antibodies (fluorescent tracers are replaced from the antibodies), and signals sent our occur depolarizing. Therefore, the change of polarization is directly related to the activity of protein kinase B in the reaction.
Each of 0.25 μl of compounds with a concentration of 50 μM and the positive control are added to a 384-well plate at room temperature, and each sample is provided with three parallel wells, and then 10 μl of STK Substrate 3 Working Solution, 5 μl of AKT1/PKBα Working Solution, 10 μl of ATP Working Solution are added to each sample respectively, the mixtures are slightly vibrated and shaked for a few minutes. Reaction is carried out just after the adding 10 μl of ATP Working Solution, from this time, reacting for 1 h. After 1 h, 5 μl of STK Stop Mix and 5 μl of STK Antibody Mix are added to each sample respectively to stop the reaction. The samples are maintained for 4 h at room temperature after adding is completed, the polarization values of samples are determined by fluorescence polarization of Microplate Reader (Detection of the signals is valid within 24 h), the inhibitory rate of compounds against the enzyme is calculated by polarization value, and thereby IC50 is calculated.
Experiment is set up four control groups at the same time, which are Buffer Control Wells, Tracer Control Wells, No Enzyme Wells and blank control of dimethyl sulfoxide, respectively. Thus obtained data are used to calculate the inhibitory rate (the preparation methods of above various solution required for determining the activities of compounds against enzyme refer to the specification of the kit of AKT1/PKBα KinEASE™ FP Fluorescein Green Assay Catalog #32-021).

For assay [1], the system named is human colon cancer cell strain HCT-116. The assay can be described thus: MTT assay, inhibition of tumor cell growth in vitro, 72 h. It counts as cell-based. The note with it: Homo sapiens, HCT-116, MTT, read-out: Antitumor proliferative activities of tumor cell (IC50, μM) HCT-116 (converted). As to the method: (§1) First, inhibitory activity on tumor proliferation in vitro is determined and the structure activity relationship is preliminarily studied, in which different solid tumor cell strains are selected for determining the antitumor activities in vitro of the synthesized compounds.
(§2) Cell strains: Human ovarian cancer cell strain (OVCAR8), colon adenocarcinoma cell strain (HCT-116)
HCT-116: RPMI 1640+Fetal Bovine Serum
(§3) Preparing method of medicines: Dissolving the medicine in DMSO to make a 50 mM stock solution, and diluting it according to a certain ratio to obtain 5 different concentrations.
(§4) Two selected tumor cells OVCAR8 and HCT-116 are incubated at 37° C. in a 5% CO2 incubator, which are subcultured when cells grow up to a density of 70˜90% (adherent cells are subcultured after digesting by Duck's EDTA) for later experiments.
(§5) Compounds are dissolved and diluted by dimethyl sulfoxide (DMSO), and tumor cells OVCAR8 and HCT-116 are seeded in a 96-well plate at a density of 4000 cells/200 μl/well, 1 μl of the compounds are added to each well with the final concentration of 50 μM, 10 μM, 2 μM, 0.4 μM and 0.08 μM, which is incubated for 72 h at 37° C. in a 5% CO2 incubator with DMSO (1%) as blank control.
(§6) The calculating formula of cell inhibitory rate is: cell inhibitory rate %=(the OD value of the control group−the OD value of the medication group)/the OD value of the control group×100%, the half maximal inhibitory concentration (IC50) is obtained by Bliss method.

Assay [2] concerns Human ovarian cancer cell strain OVCAR-8. The assay is described as above. It counts as cell-based. The note with it: Homo sapiens, OVCAR-8, MTT, read-out: Antitumor proliferative activities of tumor cell (IC50, μM) OVCAR-8. As to the method: as §1, §2
Medium: OVCAR8: RPMI 1640+Fetal Bovine Serum
as §3, §4, §5, §6

T1 sequence (P31749 whole entry): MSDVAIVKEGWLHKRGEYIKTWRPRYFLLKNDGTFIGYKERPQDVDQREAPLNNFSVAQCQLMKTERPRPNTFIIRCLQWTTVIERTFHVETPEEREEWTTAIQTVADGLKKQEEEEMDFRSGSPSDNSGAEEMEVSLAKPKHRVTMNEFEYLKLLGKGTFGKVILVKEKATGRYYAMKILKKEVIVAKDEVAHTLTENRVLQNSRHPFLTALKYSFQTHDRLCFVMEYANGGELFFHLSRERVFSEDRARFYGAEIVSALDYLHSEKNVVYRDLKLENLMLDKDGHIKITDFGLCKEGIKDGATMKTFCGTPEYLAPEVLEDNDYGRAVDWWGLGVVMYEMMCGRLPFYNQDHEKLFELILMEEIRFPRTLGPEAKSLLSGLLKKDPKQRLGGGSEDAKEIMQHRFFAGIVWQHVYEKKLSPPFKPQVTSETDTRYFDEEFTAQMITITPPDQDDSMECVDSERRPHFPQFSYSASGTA

For the compound `Cn1ncc(Br)c1-c1csc(C(=O)N[C@H]2CNCC[C@@H]2c2ccc(Cl)cc2)c1` (racemic) [Compound 37, 4-(4-bromo-1-methyl-1H-pyrazol-5-yl)-N-(3,4-trans-4-(4-chlorphenyl)piperidin-3-yl)thiophene-2-formamide], the IC50 is 0.052 µM on Akt1, 2.24 µM in assay [1] and 5.36 µM in assay [2].

Take `Cn1ncc(Cl)c1-c1coc(C(=O)N[C@H]2CNCC[C@@H]2c2ccc(C(F)(F)F)cc2)c1` (racemic) [Compound 24, 4-(4-chloro-1-methyl-1H-pyrazol-5-yl)-N-(3,4-trans-4-(4-trifluoromethylphenyl)piperidin-3-yl)furan-2-formamide]: the IC50 at Akt1 is 0.018 µM; in assay [1], 2.9 µM; in assay [2] it was 0.98 µM.

With `CNC(=O)CC1C[C@@H](c2ccc(F)c(F)c2)[C@H](NC(=O)c2cc(-c3c(Cl)cnn3C)c(Cl)s2)CN1` (stereo partly drawn) [Compound 104, 5-chloro-4-(4-chloro-1-methyl-1H-pyrazol-5-yl)-N-((3S,4S)-4-(3,4-difluorophenyl)-6-(2-(methylamido)-2-oxoethyl)piperidin-3-yl)thiophene-2-formamide], the IC50 at Akt1 was 0.003 µM; in assay [1], 2.43 µM; in assay [2], 1.71 µM.

For `Cn1ncc(Cl)c1-c1cc(C(=O)N[C@@H]2CNC(CC(O)CO)C[C@H]2c2ccc(Cl)c(Cl)c2)oc1Cl` (stereo partly drawn) [Compound 112, 5-chloro-4-(4-chloro-1-methyl-1H-pyrazol-5-yl)-N-((3S,4S)-4-(3,4-dichlorophenyl)-6-(2,3-dihydroxypropyl)piperidin-3-yl)furan-2-formamide], the IC50 at Akt1 was 0.002 µM; in assay [1], 0.84 µM; in assay [2], 0.33 µM.

With `Cn1ncc(Cl)c1-c1ccc(C(=O)N[C@@H]2CNCC[C@H]2c2ccc(F)c(F)c2)cc1F` [Compound 82, 4-(4-chloro-1-methyl-1H-pyrazol-5-yl)-N-((3S,4S)-4-(3,4-difluorophenyl)piperidin-3-yl)-3-fluorobenzamide], the values for the IC50 (at Akt1; in assay [1]; in assay [2]) were 0.016 µM, 1.56 µM and 1.15 µM, respectively.

For `Cn1ncc(Cl)c1-c1cc(C(=O)N[C@@H]2CNC(CCN3CCCC(O)C3)C[C@H]2c2ccc(Cl)c(Cl)c2)oc1Cl` (stereo partly drawn) [Compound 115, 5-chloro-4-(4-chloro-1-methyl-1H-pyrazol-5-yl)-N-((3S,4S)-4-(3,4-dichlorophenyl)-6-(2-(3-hydroxylpiperidin-1-yl)ethyl)piperidin-3-yl)furan-2-formamide], the IC50 is 0.0008 µM on Akt1, 0.56 µM in assay [1] and 0.78 µM in assay [2].

`Cn1ncc(Cl)c1-c1ccc(C(=O)N[C@@H]2CNCC[C@H]2c2ccc(Cl)c(C(F)(F)F)c2)nc1` [Compound 96, 5-(4-chloro-1-methyl-1H-pyrazol-5-yl)-N-((3S,4S)-4-(4-chloro-3-(trifluoromethyl)phenyl)piperidin-3-yl)picolinamide]: the IC50 was 0.009 µM at Akt1, 0.78 µM in assay [1] and 2.41 µM in assay [2].

As for `Cc1sc(C(=O)N[C@H]2CNCC[C@@H]2c2ccc(F)c(F)c2)cc1-c1c(Cl)cnn1C` (racemic) [Compound 5, 5-methyl-4-(4-chloro-1-methyl-1H-pyrazol-5-yl)-N-(3,4-trans-4-(3,4-difluorophenyl)piperidin-3-yl)thiophene-2-formamide], the IC50 was 0.121 µM on Akt1, 6.8 µM in assay [1] and 14.3 µM in assay [2].

As to `COc1cc(C(=O)N[C@@H]2CNCC[C@H]2c2cccc(F)c2)ccc1-c1c(Cl)cnn1C` [Compound 83, 4-(4-chloro-1-methyl-1H-pyrazol-5-yl)-N-((3S,4S)-4-(3-fluorophenyl)piperidin-3-yl)-3-methoxybenzamide], the IC50 at Akt1 is 0.01 µM; in assay [1], 4.09 µM; in assay [2], 1.32 µM.

On to `Cn1ncc(-c2ccccc2)c1-c1ccc(C(=O)N[C@@H]2CNCC[C@H]2c2ccc(F)c(F)c2)s1` [Compound 148, N-((3S, 4S)-4-(3,4-difluorophenyl)piperidin-3-yl)-5-(1-methyl-4-phenyl-1H-pyrazol-5-yl)thiophene-2-formamide], for which the IC50 is 0.005 µM at Akt1, 1.23 µM in assay [1] and 0.67 µM in assay [2].

On to `CC(O)c1cnn(C)c1-c1ccc(C(=O)N[C@@H]2CNCC[C@H]2c2cccc(F)c2)s1` (stereo partly drawn) [Compound 143, N-((3S, 4S)-4-(3-fluorophenyl)piperidin-3-yl)-5-(4-(1-hydroxyethyl)-1-methyl-1H-pyrazol-5-yl)thiophene-2-formamide], for which the results for the IC50 (at Akt1; in assay [1]; in assay [2]) were 0.0007 µM, 0.08 µM and 0.04 µM, respectively.

As for `Cc1cnn(C)c1-c1cnc(C(=O)N[C@H]2CNC[C@@H]2c2ccc(C(F)(F)F)cc2)cc1F` (racemic) [Compound 71, 4-fluoro-5-(1,4-dimethyl-1H-pyrazol-5-yl)-N-(3,4-trans-4-(4-trifluoromethylphenyl)pyrrolidin-3-yl)pyridinyl-2-formamide], the IC50 at Akt1 was 0.116 µM; in assay [1] it was 11.1 µM; in assay [2], 2.61 µM.

Regarding `Cc1cc(C(=O)N[C@@H]2CNCC[C@H]2c2ccc(F)c(F)c2)ncc1-c1c(Cl)cnn1C` [Compound 94, 5-(4-chloro-1-methyl-1H-pyrazol-5-yl)-N-((3S,4S)-4-(3,4-difluorophenyl)piperidin-3-yl)-4-methylpicolinamide], the half-maximal inhibitory concentration (IC50) is 0.007 µM at Akt1, 0.89 µM in assay [1] and 1.22 µM in assay [2].

As to `Cc1cccc([C@H]2CCNC[C@@H]2NC(=O)c2cc(C)c(-c3c(Br)cnn3C)cc2C)c1` (racemic) [Compound 57, 2,5-dimethyl-4-(4-bromo-1-methyl-1H-pyrazol-5-yl)-N-(3,4-trans-4-(3-methylphenyl)piperidin-3-yl)phenyl formamide], the IC50 is 0.082 µM at Akt1, 2.5 µM in assay [1] and 12.9 µM in assay [2].

`CCCc1cc(C(=O)N[C@H]2CNCC[C@@H]2c2cc(OC)cc(OC)c2)ccc1-c1c(Br)cnn1C` (racemic) [Compound 54, 3-n-propyl-4-(4-bromo-1-methyl-1H-pyrazol-5-yl)-N-(3,4-trans-4-(3,5-dimethoxyphenyl)piperidin-3-yl)phenyl formamide]: the 50% inhibitory concentration (IC50) at Akt1 is 0.678 µM; in assay [1], 3.14 µM; in assay [2], 13.3 µM.

For `Cn1ncc(Cl)c1-c1csc(C(=O)N[C@H]2CNCC[C@@H]2c2ccc(Cl)cc2)c1` (racemic) [Compound 35, 4-(4-chloro-1-methyl-1H-pyrazol-5-yl)-N-(3,4-trans-4-(4-chlorphenyl)piperidin-3-yl)thiophene-2-formamide], the IC50 at Akt1 was 0.12 µM; in assay [1], 11.5 µM; in assay [2] it was 4.61 µM.

As for `Cn1ncc(Cl)c1-c1cnc(C(=O)N[C@@H]2CNCC[C@H]2c2ccc(Cl)c(C(F)(F)F)c2)cc1Cl` [Compound 95, 4-chloro-5-(4-chloro-1-methyl-1H-pyrazol-5-yl)-N-((3S,4S)-4-(4-chloro-3-(trifluoromethyl)phenyl)piperidin-3-yl)picolinamide], the IC50 at Akt1 is 0.017 µM; in assay [1], 0.95 µM; in assay [2], 0.98 µM.

As to `Cn1ncc(Cl)c1-c1csc(C(=O)N[C@H]2CNCC[C@@H]2c2ccc(F)c(F)c2)c1` (racemic) [Compound 36, 4-(4-chloro-1-methyl-1H-pyrazol-5-yl)-N-(3,4-trans-4-(3,4-difluorophenyl)piperidin-3-yl)thiophene-2-formamide], the values for the IC50 (on Akt1; in assay [1]; in assay [2]) were 0.105 µM, 3.28 µM and 3.38 µM, respectively.
